Laboratory results published in PMC10303271, “Synthesis and Receptor Binding Studies of α5 GABAAR Selective Novel Imidazodiazepines Targeted for Psychiatric and Cognitive Disorders” (Molecules, 2023).

What was measured:
[1] = molecular target: T1, M2 (Homo sapiens, UniProt P08172); test: PDSP primary binding M2; conditions: primary binding, 10,000 nM; last figure of the line = mean of the 4 before it; read-out: M2, PDSP raw data, mean
T1 construct: purchased NIMH Psychoactive Drug Screening Program (PDSP)
T1 sequence (P08172 1-466): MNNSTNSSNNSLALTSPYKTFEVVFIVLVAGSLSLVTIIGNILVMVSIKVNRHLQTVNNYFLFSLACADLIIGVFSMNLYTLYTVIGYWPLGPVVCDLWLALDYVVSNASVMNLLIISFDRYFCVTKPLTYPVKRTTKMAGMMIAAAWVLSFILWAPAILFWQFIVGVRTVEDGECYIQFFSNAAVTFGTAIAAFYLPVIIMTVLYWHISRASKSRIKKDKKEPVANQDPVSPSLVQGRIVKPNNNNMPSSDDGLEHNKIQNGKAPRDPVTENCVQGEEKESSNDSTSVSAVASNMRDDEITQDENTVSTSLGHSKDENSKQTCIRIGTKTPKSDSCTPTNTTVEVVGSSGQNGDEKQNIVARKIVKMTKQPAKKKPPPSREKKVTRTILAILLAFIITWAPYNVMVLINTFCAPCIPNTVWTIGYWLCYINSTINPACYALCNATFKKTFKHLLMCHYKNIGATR
Method: (§1) To determine if any off-target receptor-binding effects are present, all the novel ligands were sent to the National Institute of Mental Health (NIMH), Psychoactive Drug Screening Program (PDSP). The ligands were screened over a panel of 47 receptors, ion channels, and transporters to determine any other possible interactions with […]. The hERG-binding was also determined. […] No binding of the test compounds to calcium channels was observed. […] It is necessary to screen the compounds for hERG-binding during the early process of drug discovery. The unintentional binding of many drugs to hERG can cause blockade of hERG K+ channels in the heart, which can cause many side effects including cardiac arrhythmias and sudden death. […] All of the α5 imidazodiazepines were tested for hERG-binding.
(§2) The NIMH PDSP assay protocol book [https://kidbdev.med.unc.edu/databases/PDSP%20Protocols%20II%202013-03-28.pdf accessed on 23 April 2023]. describes the protocols for primary and secondary radio-ligand binding assays. These assays were carried out in a final volume of 125 µL per well in the appropriate binding buffer.
(§3) The binding of a ligand to a receptor, ion channel, or transporter was determined in the […] of 10 µM of the appropriate reference compound. […] Plates were incubated in the dark for 90 min at rt, and the reactions were stopped by vacuum filtration onto 0.3% polyethyleneimine (PEI) soaked 96-well filter mats using a 96-well Filtermateharvester. This was followed by three washes with cold PBS buffer. Radioactivity was then counted on a Microbeta counter. Nonlinear regression was used to analyze the data with N = 6 replicates.

[2] = molecular target: T2, hERG channels (Homo sapiens, UniProt Q12809); test: PDSP radioligand binding at hERG; conditions: primary binding, 10,000 nM; last figure of the line = mean of the 4 before it
T2 construct: purchased NIMH Psychoactive Drug Screening Program (PDSP)
Method: as §1, §2, §3

[3] = molecular target: T3, V1A (Homo sapiens, UniProt P37288); test: PDSP primary binding V1A; conditions: primary binding, 10,000 nM; last figure of the line = mean of the 4 before it; read-out: V1A, PDSP raw data, mean
T3 construct: purchased NIMH Psychoactive Drug Screening Program (PDSP)
Method: as §1, §2, §3

[4] = molecular target: T4, D3 (Homo sapiens, UniProt P35462); test: PDSP primary binding D3; conditions: 1.5 h; primary binding, 10,000 nM; last figure of the line = mean of the 4 before it; read-out: D3, PDSP raw data, mean
T4 construct: purchased NIMH Psychoactive Drug Screening Program (PDSP)
Method: as §1, §2, §3

[5] = molecular target: T5, Alpha4Beta4 (Rattus norvegicus, UniProt P09483+P12392); test: PDSP primary binding Alpha4Beta4; conditions: primary binding, 10,000 nM; last figure of the line = mean of the 4 before it; read-out: Alpha4Beta4, PDSP raw data, mean
T5 construct: purchased NIMH Psychoactive Drug Screening Program (PDSP)
Method: as §1, §2, §3

[6] = molecular target: T6, Alpha4Beta2 (Rat Brain) (Rattus norvegicus, UniProt P09483+P12390); test: PDSP primary binding Alpha4Beta2 (Rat Brain); conditions: primary binding, 10,000 nM; last figure of the line = mean of the 4 before it; read-out: Alpha4Beta2 (Rat Brain), PDSP raw data, mean
T6 construct: purchased NIMH Psychoactive Drug Screening Program (PDSP)
Method: as §1, §2, §3

[7] = test system: NR2B; test: PDSP primary binding NR2B; conditions: primary binding, 10,000 nM; last figure of the line = mean of the 4 before it
Method: as §1, §2, §3

[8] = molecular target: T7, V1B (Homo sapiens, UniProt P47901); test: PDSP primary binding V1B; conditions: primary binding, 10,000 nM; last figure of the line = mean of the 4 before it; read-out: V1B, PDSP raw data, mean
T7 construct: purchased NIMH Psychoactive Drug Screening Program (PDSP)
T7 sequence (P47901 1-424): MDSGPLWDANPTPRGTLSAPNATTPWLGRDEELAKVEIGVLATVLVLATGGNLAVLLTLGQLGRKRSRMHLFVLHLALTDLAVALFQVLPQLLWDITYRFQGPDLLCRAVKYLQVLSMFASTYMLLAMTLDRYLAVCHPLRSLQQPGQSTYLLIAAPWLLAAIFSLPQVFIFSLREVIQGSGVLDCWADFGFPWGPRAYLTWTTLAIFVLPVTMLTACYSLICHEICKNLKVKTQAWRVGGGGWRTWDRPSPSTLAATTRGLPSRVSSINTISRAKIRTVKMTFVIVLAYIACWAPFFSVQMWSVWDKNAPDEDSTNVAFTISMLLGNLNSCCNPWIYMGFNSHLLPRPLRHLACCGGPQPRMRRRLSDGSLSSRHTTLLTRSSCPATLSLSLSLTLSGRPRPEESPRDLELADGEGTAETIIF
Method: as §1, §2, §3

[9] = test system: NMDA; test: PDSP primary binding NMDA; conditions: primary binding, 10,000 nM; last figure of the line = mean of the 4 before it
Method: as §1, §2, §3

[10] = test system: Sigma 2; test: PDSP primary binding Sigma 2; conditions: primary binding, 10,000 nM; last figure of the line = mean of the 4 before it
Method: as §1, §2, §3

[11] = molecular target: T8, 5-HT1A (Homo sapiens, UniProt P08908); test: PDSP primary binding 5-HT1A; conditions: 1.5 h; primary binding, 10,000 nM; last figure of the line = mean of the 4 before it; read-out: 5-HT1A, PDSP raw data, mean
T8 construct: purchased NIMH Psychoactive Drug Screening Program (PDSP)
T8 sequence (P08908 1-422): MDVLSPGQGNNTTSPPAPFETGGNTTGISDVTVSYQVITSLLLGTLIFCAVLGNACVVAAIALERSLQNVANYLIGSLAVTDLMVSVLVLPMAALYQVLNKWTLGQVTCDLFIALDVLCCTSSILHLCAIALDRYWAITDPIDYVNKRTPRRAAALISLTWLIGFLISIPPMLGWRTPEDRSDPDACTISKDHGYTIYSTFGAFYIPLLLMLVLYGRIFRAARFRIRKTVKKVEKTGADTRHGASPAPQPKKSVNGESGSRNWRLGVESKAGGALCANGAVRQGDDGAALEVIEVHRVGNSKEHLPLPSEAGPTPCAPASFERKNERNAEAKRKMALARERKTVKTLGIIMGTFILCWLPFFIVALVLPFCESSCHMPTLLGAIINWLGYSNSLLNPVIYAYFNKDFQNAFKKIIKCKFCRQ
Method: as §1, §2, §3

T3 sequence (P37288 whole entry): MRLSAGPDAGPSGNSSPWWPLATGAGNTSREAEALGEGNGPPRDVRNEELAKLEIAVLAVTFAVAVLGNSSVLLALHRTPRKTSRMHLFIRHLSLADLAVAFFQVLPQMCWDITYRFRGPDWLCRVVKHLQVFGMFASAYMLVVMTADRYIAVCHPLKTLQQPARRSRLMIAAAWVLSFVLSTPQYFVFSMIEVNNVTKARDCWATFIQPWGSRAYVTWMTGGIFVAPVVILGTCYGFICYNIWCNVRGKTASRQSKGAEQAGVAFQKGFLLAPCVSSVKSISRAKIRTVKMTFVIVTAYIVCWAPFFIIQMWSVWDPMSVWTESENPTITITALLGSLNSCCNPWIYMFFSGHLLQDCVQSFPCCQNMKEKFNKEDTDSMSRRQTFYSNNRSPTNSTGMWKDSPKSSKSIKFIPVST
T5 sequence (P09483 31-630): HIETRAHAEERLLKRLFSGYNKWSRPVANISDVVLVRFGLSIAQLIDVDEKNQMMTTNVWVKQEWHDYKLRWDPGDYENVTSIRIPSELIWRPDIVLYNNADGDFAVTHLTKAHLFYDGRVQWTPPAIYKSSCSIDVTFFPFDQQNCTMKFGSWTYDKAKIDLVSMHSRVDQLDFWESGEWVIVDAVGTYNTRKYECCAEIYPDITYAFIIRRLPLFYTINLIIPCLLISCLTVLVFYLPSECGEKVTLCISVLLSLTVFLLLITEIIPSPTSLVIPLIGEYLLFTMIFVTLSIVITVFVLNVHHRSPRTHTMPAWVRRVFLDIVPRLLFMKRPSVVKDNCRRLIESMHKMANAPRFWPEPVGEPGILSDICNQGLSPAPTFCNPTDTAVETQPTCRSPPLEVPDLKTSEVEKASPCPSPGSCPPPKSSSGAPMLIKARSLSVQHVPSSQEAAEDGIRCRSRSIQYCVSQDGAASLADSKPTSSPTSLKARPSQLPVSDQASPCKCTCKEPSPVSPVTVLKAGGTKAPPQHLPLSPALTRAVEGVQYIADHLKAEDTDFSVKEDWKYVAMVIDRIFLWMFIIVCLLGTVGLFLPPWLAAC
T5 sequence (P12392 21-495): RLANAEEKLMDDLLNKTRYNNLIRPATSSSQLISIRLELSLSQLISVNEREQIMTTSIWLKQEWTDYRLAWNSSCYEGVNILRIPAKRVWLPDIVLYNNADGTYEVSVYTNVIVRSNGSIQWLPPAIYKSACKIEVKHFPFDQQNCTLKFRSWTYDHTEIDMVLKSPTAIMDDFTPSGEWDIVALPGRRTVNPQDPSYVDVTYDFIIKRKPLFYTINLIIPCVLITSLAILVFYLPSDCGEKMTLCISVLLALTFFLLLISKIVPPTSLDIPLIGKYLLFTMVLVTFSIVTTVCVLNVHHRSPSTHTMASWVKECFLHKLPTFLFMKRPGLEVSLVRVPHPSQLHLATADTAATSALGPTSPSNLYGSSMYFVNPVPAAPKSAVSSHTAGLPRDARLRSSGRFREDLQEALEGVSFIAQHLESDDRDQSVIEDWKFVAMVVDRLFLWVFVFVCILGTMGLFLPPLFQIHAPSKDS
T6 sequence (P09483 31-630): as the sequence (P09483 31-630) above
T6 sequence (P12390 25-500): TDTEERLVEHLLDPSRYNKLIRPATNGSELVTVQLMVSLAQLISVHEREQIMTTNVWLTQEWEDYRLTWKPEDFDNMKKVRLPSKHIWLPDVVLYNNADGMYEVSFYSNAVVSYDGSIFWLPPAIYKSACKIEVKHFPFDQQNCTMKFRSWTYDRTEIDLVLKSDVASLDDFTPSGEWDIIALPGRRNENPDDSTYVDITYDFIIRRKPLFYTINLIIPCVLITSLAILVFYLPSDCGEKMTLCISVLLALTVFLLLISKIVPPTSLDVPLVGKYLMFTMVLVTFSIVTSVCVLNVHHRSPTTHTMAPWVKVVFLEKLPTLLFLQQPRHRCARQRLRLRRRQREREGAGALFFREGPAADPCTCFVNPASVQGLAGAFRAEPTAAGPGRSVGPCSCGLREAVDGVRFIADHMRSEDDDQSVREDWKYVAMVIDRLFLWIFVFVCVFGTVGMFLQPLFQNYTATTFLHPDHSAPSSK
T2 sequence (Q12809 whole entry): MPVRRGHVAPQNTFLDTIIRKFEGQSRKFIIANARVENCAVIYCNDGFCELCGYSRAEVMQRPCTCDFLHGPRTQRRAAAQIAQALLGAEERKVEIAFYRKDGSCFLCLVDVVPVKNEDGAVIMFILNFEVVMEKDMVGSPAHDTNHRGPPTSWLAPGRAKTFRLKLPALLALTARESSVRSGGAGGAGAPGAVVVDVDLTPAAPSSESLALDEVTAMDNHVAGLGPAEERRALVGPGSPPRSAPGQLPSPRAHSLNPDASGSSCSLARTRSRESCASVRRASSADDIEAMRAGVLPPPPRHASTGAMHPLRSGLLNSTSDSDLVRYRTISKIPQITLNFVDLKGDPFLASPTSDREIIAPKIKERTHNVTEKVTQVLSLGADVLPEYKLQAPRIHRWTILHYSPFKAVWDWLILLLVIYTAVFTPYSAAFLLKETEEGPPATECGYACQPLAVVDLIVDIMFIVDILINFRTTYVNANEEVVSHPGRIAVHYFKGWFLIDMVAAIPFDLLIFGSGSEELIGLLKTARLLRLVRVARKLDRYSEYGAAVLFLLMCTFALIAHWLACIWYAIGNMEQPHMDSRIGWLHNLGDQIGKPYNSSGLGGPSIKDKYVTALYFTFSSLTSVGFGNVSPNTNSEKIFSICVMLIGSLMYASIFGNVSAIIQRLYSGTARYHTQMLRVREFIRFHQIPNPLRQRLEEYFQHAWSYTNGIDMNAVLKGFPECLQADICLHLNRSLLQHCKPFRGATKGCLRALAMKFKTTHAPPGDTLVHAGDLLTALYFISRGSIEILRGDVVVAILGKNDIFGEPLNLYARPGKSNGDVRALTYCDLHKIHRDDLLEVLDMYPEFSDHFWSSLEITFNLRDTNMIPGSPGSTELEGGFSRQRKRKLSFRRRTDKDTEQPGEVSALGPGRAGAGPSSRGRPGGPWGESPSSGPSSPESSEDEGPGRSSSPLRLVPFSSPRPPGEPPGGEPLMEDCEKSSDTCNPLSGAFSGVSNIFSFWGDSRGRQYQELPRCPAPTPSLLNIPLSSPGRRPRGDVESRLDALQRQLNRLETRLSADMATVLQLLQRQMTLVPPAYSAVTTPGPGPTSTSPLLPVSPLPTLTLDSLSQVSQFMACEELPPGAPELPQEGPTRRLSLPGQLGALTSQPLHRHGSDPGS
T4 sequence (P35462 whole entry): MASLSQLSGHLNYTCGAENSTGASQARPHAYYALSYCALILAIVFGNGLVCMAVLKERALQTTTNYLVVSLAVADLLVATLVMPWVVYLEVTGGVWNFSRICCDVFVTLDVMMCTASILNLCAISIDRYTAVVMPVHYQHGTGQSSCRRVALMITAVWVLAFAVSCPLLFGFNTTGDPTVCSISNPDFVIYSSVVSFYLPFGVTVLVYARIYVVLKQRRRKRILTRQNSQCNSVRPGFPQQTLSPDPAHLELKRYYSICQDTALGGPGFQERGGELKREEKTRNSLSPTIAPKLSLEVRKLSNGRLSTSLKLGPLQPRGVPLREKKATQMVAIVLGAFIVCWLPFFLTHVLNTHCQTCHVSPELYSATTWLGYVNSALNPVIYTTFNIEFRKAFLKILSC

| SMILES | inhibition at 10 µM [1] [%] | HERG, PDSP raw data, mean [2] [%] | inhibition at 10 µM [3] [%] | inhibition at 10 µM [4] [%] | inhibition at 10 µM [5] [%] | inhibition at 10 µM [6] [%] | NR2B, PDSP raw data, mean [7] [%] | inhibition at 10 µM [8] [%] | NMDA, PDSP raw data, mean [9] [%] | Sigma 2, PDSP raw data, mean [10] [%] | inhibition at 10 µM [11] [%] |
| --- | --- | --- | --- | --- | --- | --- | --- | --- | --- | --- | --- |
| C[C@H]1N=C(c2ccccc2F)c2cc(Cl)ccc2-n2cnc(-c3nc(C4CC4)no3)c21 [Compound 38, (R)-5-(8-Chloro-6-(2′-fluorophenyl)-4-methyl-4H-benzo[f]imidazo[1,5-a][1,4]diazepin-3-yl)-3-cyclopropyl-1,2,4-oxadiazole] | -9.65 | 9.37 | 4.3 | -0.07 | 8.62 | 0.48 | 31.49 | -7.2 | 65.22 | 80.86 | -1.57 |
| CCc1noc(-c2ncn3c2CN=C(c2ccccc2F)c2cc(C4CC4)ccc2-3)n1 [Compound 44, 5-(8-Cyclopropyl-6-(2′-fluorophenyl)-4H-benzo[f]imidazo[1,5-a][1,4]diazepin-3-yl)-3-ethyl-1,2,4-oxadiazole] | -13.6 | 33.24 | 21.3 | 16.1 | 10.6 | -0.99 | 21.74 | 35.7 | 20.03 | 74.98 | 36.1 |
| CCc1noc(-c2ncn3c2[C@@H](C)N=C(c2ccccc2F)c2cc(C4CC4)ccc2-3)n1 [Compound 46, (R)-5-(8-Cyclopropyl-6-(2′-fluorophenyl)-4-methyl-4H-benzo[f]imidazo[1,5-a][1,4]diazepin-3-yl)-3-ethyl-1,2,4-oxadiazole] | 5.73 | 4.34 | -6.74 | 27.8 | 14.2 | -5.79 | 32.88 | 2.67 | 66.04 | 89.78 | 17.8 |
